Read-outs that look alike come from different tables or passages of the source.
Experiments:
[1] = system: MCF-7/ADR (doxorubicin-resistant human breast cancer cell line); conditions: earlier compounds, ref 19 (4A93), 20 (6C44), cited from earlier work; for IC50: read-out: IC50 MCF-7/ADR (Figure 2)
[2] = Solubility experiment (HPLC) in water/acetonitrile; format: physicochemical; conditions: in water/acetonitrile (table title)
Procedure: Wavelength: 254 nm; flow rate: 1.0 mL/min; column temperature: 25 °C. Mobile phase: Phase A: water, Phase B: acetonitrile (Table 5).
Compounds were dissolved in chromatographic-grade acetonitrile and diluted to concentrations of 200, 100, 50, 25, 12.5, and 6.25 µg/mL. A standard curve was plotted using the peak area under the curve (AUC) versus concentration. […] The supernatant was filtered through an ultrafiltration membrane and then subjected to HPLC analysis. The solubility of the target compound was determined by substituting the AUC of the test compound into the standard curve. Each measurement was performed in triplicate.

[3] = system: MCF-7/ADR (doxorubicin-resistant human breast cancer cell line); experiment: In vitro antiproliferative assay (MTT, 48 h), MCF-7/ADR; format: cell-based; conditions: for Selectivity Ratio IC50(MCF-7)/ IC50(MCF-7/ADR): collateral sensitivity; for IC50: Homo sapiens, NCI/ADR-RES, MTT, 48 h, mean of three determinations
Excerpt: (§1) The MDA-MB-468 cell line was procured from the Cell Bank of the Chinese Academy of Sciences. The MCF-7, MCF-7/ADR, MCF-10A, and MDA-MB-231 cell lines were kindly provided by Professor Xianyi Sha (Fudan University, Shanghai, China). The HUVEC cells were kindly provided by Associate Professor Hulie Zeng (Fudan University, Shanghai, China). The MDA-MB-468, MDA-MB-231, MCF-7, MCF-10A, and HUVEC cells were cultivated in DMEM (Service Biotechnology, China) supplemented with 10% FBS (Capricorn Scientific, Germany) and 1% penicillin-streptomycin (Meilunbio, Dalian, China). For the MCF-7/ADR cells, they were cultured in RPMI-1640 (Service Biotechnology, Wuhan, China), containing 10% FBS and 1% penicillin-streptomycin. Additionally, 500 ng/mL of doxorubicin (Sigma-Aldrich, Saint Louis, MO, USA) was incorporated into the RPMI-1640 culture medium to keep drug resistance. All cell lines were cultured in a humidified incubator at 37 °C with a 5% CO2 atmosphere.
Following harvest during logarithmic growth, cells were plated in 96-well culture plates at an initial density of 5000 cells per well. Incubate the plate overnight at 37 °C to allow the cells to adhere. Following the overnight incubation, introduce the compound at the predetermined concentration into each well, and then return the plate to the incubator for an additional 48 h culture period. After the 48 h treatment, carefully aspirate the drug-containing medium from each well. Subsequently, add 150 μL of 0.5 mg/mL MTT (Beyotime, China) solution to each well. Protect the plate from light and incubate it at 37 °C for 4 h to allow the formation of formazan crystals. Finally, add 150 μL of DMSO (Sinopharm, China) to each well and gently mix to ensure complete dissolution of the formazan crystals. The OD value at 570nm was measured using a microplate reader (Thermo Fisher, Waltham, MA, USA). Cell proliferation inhibition was determined using the following formula:Inhibition (%) = [(ODDMSO − ODcompd.)/(ODDMSO − ODblank)] × 100
GraphPad Prism software 9 was used to calculate the IC50 values. The specific calculation process is as follows: Firstly, we input the experimental data into Prism. The data include the concentrations of the experimental compounds and the corresponding biological response values. For instance, in the cell experiment, we recorded the cell viability values at different drug concentrations. Subsequently, we select the option of “Dose–Response–Nonlinear Regression” in the “Analyze” menu for curve fitting. Generally speaking, we use the model of “[Inhibitor] vs. normalized response—Variable slope”. The Prism software fits the data through the nonlinear least squares method and finds the parameter values that can minimize the difference between the model’s predicted values and the actual data. After completing the curve fitting, the software will directly provide the estimated values and confidence intervals of the IC50 value and other relevant parameters. Meanwhile, it will also offer goodness-of-fit indices, such as the correlation coefficient, to evaluate the quality of the fitting. Through the above method, we can accurately calculate the IC50 value, thereby assessing the intensity of the inhibitory or activating effect of the compound on the biological system.

[4] = system: human normal mammary epithelial cell lines MCF-10A; experiment: Cytotoxicity in normal mammary epithelial cells (MTT); format: cell-based; conditions: normal mammary epithelial cell line
Excerpt: as §1, with “Additionally, 500 ng/mL of doxorubicin (Sigma-Aldrich, Saint Louis, MO, USA) was incorporated into the RPMI-1640 culture medium to keep drug resistance. All cell lines were cultured in a humidified incubator at 37 °C with a 5% CO2 atmosphere.” left out
(§2) Following harvest during logarithmic growth, cells were plated in 96-well culture plates at an initial density of 5000 cells per well. […] The OD value at 570nm was measured using a microplate reader (Thermo Fisher, Waltham, MA, USA). Cell proliferation inhibition was determined using the following formula:Inhibition (%) = [(ODDMSO − ODcompd.)/(ODDMSO − ODblank)] × 100
GraphPad Prism software 9 was used to calculate the IC50 values. […] For instance, in the cell experiment, we recorded the cell viability values at different drug concentrations. […]

[5] = system: HUVEC (human umbilical vein endothelial cell lines); experiment: Cytotoxicity screen in HUVEC; format: cell-based; conditions: 500 nM concentration
Excerpt: as §1
as §2, with “well. Incubate the plate overnight at 37 °C to allow the cells to adhere.” for “well.”, “100 […]” for “100”

Cc1c(Cc2ccc(C(F)(F)F)cc2)c(=O)oc2cc(OCCOc3no[n+]([O-])c3S(=O)(=O)c3ccccc3)ccc12 [Compound 4A93]
IC50 [1]: 5 nM

COc1cc(OCCOc2no[n+]([O-])c2S(=O)(=O)c2ccccc2)ccc1C(=O)/C=C/c1ccccc1 [Compound 6C44]
IC50(MCF-7)/IC50(MCF-7/ADR) (Figure 2) [1]: 199.2 | IC50 [1]: 4.2 nM

COc1ccc(/C=C/C(=O)c2ccc(OCCCOc3no[n+]([O-])c3S(=O)(=O)c3ccccc3)cc2OC)cc1 [Compound 6d, (E)-4-(3-(3-methoxy-4-(3-(4-methoxyphenyl)acryloyl)phenoxy)propoxy)-3-(phenylsulfonyl)-1,2,5-oxadiazole 2-oxide]
Solubility [2]: 24.3 ± 2.5% | Selectivity Ratio IC50(MCF-7)/ IC50(MCF-7/ADR) [3]: 91.1 | IC50 [4]: 13400 nM

COc1cc(OCCOc2no[n+]([O-])c2S(=O)(=O)c2ccccc2)ccc1C(C)=O [Compound 12a, 4-(2-(4-acetyl-3-methoxyphenoxy)ethoxy)-3-(phenylsulfonyl)-1,2,5-oxadiazole 2-oxide]
Solubility [2]: 67.9 ± 7.8% | Selectivity Ratio IC50(MCF-7)/ IC50(MCF-7/ADR) [3]: 189.3 | cell survival probability in HUVEC [5]: over 90%

COc1cc(OCCCOc2no[n+]([O-])c2S(=O)(=O)c2ccccc2)ccc1C(C)=O [Compound 12b, 4-(3-(4-acetyl-3-methoxyphenoxy)propoxy)-3-(phenylsulfonyl)-1,2,5-oxadiazole 2-oxide]
Solubility [2]: 384 ± 9.3% | Selectivity Ratio IC50(MCF-7)/ IC50(MCF-7/ADR) [3]: 65.6

O=C(NCc1ccccc1)c1ccc(OCCOc2no[n+]([O-])c2S(=O)(=O)c2ccccc2)cc1O [Compound 16a, 4-(2-(4-(benzylcarbamoyl)-3-hydroxyphenoxy)ethoxy)-3-(phenylsulfonyl)-1,2,5-oxadiazole 2-oxide]
Solubility [2]: 125 ± 7.1% | Selectivity Ratio IC50(MCF-7)/ IC50(MCF-7/ADR) [3]: 7.2

O=C(NCc1ccc(F)cc1)c1ccc(OCCOc2no[n+]([O-])c2S(=O)(=O)c2ccccc2)cc1O [Compound 16b, 4-(2-(4-((4-fluorobenzyl)carbamoyl)-3-hydroxyphenoxy)ethoxy)-3-(phenylsulfonyl)-1,2,5-oxadiazole 2-oxide]
Solubility [2]: 31.6 ± 6.8% | Selectivity Ratio IC50(MCF-7)/ IC50(MCF-7/ADR) [3]: 27.8

Nc1ccc(CNC(=O)c2ccc(OCCOc3no[n+]([O-])c3S(=O)(=O)c3ccccc3)cc2O)cc1 [Compound 16c, 4-(2-(4-((4-aminobenzyl)carbamoyl)-3-hydroxyphenoxy)ethoxy)-3-(phenylsulfonyl)-1,2,5-oxadiazole 2-oxide]
Solubility [2]: 327 ± 11.6% | Selectivity Ratio IC50(MCF-7)/ IC50(MCF-7/ADR) [3]: 95.4

O=C(NCc1ccc(C(F)(F)F)cc1)c1ccc(OCCOc2no[n+]([O-])c2S(=O)(=O)c2ccccc2)cc1O [Compound 16d, 4-(2-(3-hydroxy-4-((4-(trifluoromethyl)benzyl)carbamoyl)phenoxy)ethoxy)-3-(phenylsulfonyl)-1,2,5-oxadiazole 2-oxide]
Solubility [2]: 61.1 ± 2.6% | IC50 [3]: 10.5 nM | Selectivity Ratio IC50(MCF-7)/ IC50(MCF-7/ADR) [3]: 257.8

N#Cc1ccc(CNC(=O)c2ccc(OCCOc3no[n+]([O-])c3S(=O)(=O)c3ccccc3)cc2O)cc1 [Compound 16e, 4-(2-(4-((4-cyanobenzyl)carbamoyl)-3-hydroxyphenoxy)ethoxy)-3-(phenylsulfonyl)-1,2,5-oxadiazole 2-oxide]
Solubility [2]: 33.8 ± 5.3% | IC50 [3]: 5.36 nM | Selectivity Ratio IC50(MCF-7)/ IC50(MCF-7/ADR) [3]: 561.9

O=C(NCc1ccc(O)cc1)c1ccc(OCCOc2no[n+]([O-])c2S(=O)(=O)c2ccccc2)cc1O [Compound 16f, 4-(2-(3-hydroxy-4-((4-hydroxybenzyl)carbamoyl)phenoxy)ethoxy)-3-(phenylsulfonyl)-1,2,5-oxadiazole 2-oxide]
Solubility [2]: 81.0 ± 7.9% | Selectivity Ratio IC50(MCF-7)/ IC50(MCF-7/ADR) [3]: 64.4

COc1cc(OCCOc2no[n+]([O-])c2S(=O)(=O)c2ccccc2)ccc1C(=O)NCc1ccccc1 [Compound 18a, 4-(2-(4-(benzylcarbamoyl)-3-methoxyphenoxy)ethoxy)-3-(phenylsulfonyl)-1,2,5-oxadiazole 2-oxide]
Solubility [2]: 70.3 ± 6.1% | Selectivity Ratio IC50(MCF-7)/ IC50(MCF-7/ADR) [3]: 47.8

COc1cc(OCCOc2no[n+]([O-])c2S(=O)(=O)c2ccccc2)ccc1C(=O)NCc1ccc(F)cc1 [Compound 18b, 4-(2-(4-((4-fluorobenzyl)carbamoyl)-3-methoxyphenoxy)ethoxy)-3-(phenylsulfonyl)-1,2,5-oxadiazole 2-oxide]
Solubility [2]: 60.9 ± 9.8% | Selectivity Ratio IC50(MCF-7)/ IC50(MCF-7/ADR) [3]: 101.7

COc1cc(OCCOc2no[n+]([O-])c2S(=O)(=O)c2ccccc2)ccc1C(=O)NCc1ccc(C(F)(F)F)cc1 [Compound 18d, 4-(2-(3-methoxy-4-((4-(trifluoromethyl)benzyl)carbamoyl)phenoxy)ethoxy)-3-(phenylsulfonyl)-1,2,5-oxadiazole 2-oxide]
Solubility [2]: 26.2 ± 7.2% | IC50 [3]: 6.56 nM | Selectivity Ratio IC50(MCF-7)/ IC50(MCF-7/ADR) [3]: 163.0

COc1cc(OCCOc2no[n+]([O-])c2S(=O)(=O)c2ccccc2)ccc1C(=O)NCc1ccc(C#N)cc1 [Compound 18e, 4-(2-(4-((4-cyanobenzyl)carbamoyl)-3-methoxyphenoxy)ethoxy)-3-(phenylsulfonyl)-1,2,5-oxadiazole 2-oxide]
Solubility [2]: 44.7 ± 10.2% | IC50 [3]: 19.9 nM | Selectivity Ratio IC50(MCF-7)/ IC50(MCF-7/ADR) [3]: 235.0

— PMC12156367, “Synthesis and Biological Evaluation of Seco-Coumarin/Furoxan Hybrids as Potent Anti-Tumor Agents to Overcome Multidrug Resistance via Multiple Mechanisms” (Molecules, 2025)
